# “Also recorded” adds a separate entry of the source.
# Key:
# DMPK mRNA = conditions: 100 nM, 48 h, qRT-PCR of r(CUG)-containing mRNAs
# Procedure: Target identification of small molecule dimers was assessed using DM1 patient derived fibroblasts containing 500 CTG repeats (GM03987) and healthy fibroblasts (GM07492). Cells were grown as monolayers in 100 mm^2 in growth medium (1×EMEM (Lonza), 10% FBS, 1× glutagro (Corning), 1×MEM non-essential amino acids (Corning) and 1× antibiotic/antimycotic (Corning)). Once cells were 80% confluent, they were treated with growth medium containing the compound of interest (100 nM 2H-K4NMeS-CA-Biotin). After 48 h the cells were lysed and the total RNA was harvested using Trizol reagent (Life Technologies). Approximately 10 of total RNA was incubated with streptavidin-agarose beads (100 Sigma) for 1 h at room temperature. Then the beads were washed with 1×PBS and the bound RNA was eluted by adding 100 μL of 95% formamide, 10 mM EDTA pH 8.2 for 10 min at 60° C. The bound RNA was cleaned up using a Zymo Quick RNA miniprep kit. Approximately 100 ng of RNA was used for RT qScript cDNA synthesis kit (Quanta BioSciences). 10% of the RT reaction was used for real time PCR (qPCR) with SYBR green master mix (Life Technologies) performed on a 7900HT Fast Real-Time PCR System (Applied Biosystems). Monitored rCUG-containing mRNAs DMPK (500 repeats), SUPT20HL1 (17 repeats), CASK (16 repeats), LRP8 (11 repeats), MAP3K4 (11 repeats), SCUBE (7 repeats) and SORCS2 (7 repeats). Quantified by ΔΔCt relative to GAPDH
# r(CUG)109 = assay: In vitro reaction and pull down of small molecule dimers with RNA; assay type: biochemical; conditions: rCUG109, GC-based paired RNA and tRNA
# Procedure: Then 30 μL of this slurry were added to each sample and incubated at room temperature for 1 h. Then the samples were centrifuged and the supernatant was transferred to a separate tube. The beads were then washed with 1×PBST and centrifuged. The supernatant was transferred to the tube containing the unbound RNA. The total radioactive counts of bound and unbound RNA were measured by scintillation counting.
# r(CUG)exp [1] = assay: DM1 pre-mRNA splicing defects in patient derived fibroblasts; assay type: cell-based, human
# Procedure: Bioactivity of small molecule dimers was assessed by using DM1 patient derived fibroblasts containing 500 CTG repeats (GM03987) and healthy fibroblasts (GM07492). Cells were grown as monolayers in 12 well plates in growth medium (1×EMEM (Lonza), 10% FBS, 1× glutagro (Corning), 1×MEM non-essential amino acids (Corning) and 1× antibiotic/antimycotic (Corning)). Once cells were ˜80% confluent, they were treated with growth medium containing the compound of interest (10, 1, 0.1 and 0.01 μM 2H-K4NMeS; 100, 10 and 1 nM 2H-K4NMeS-CA-Biotin; 1 μM N3-2H-K4NMeS; 500 nM N3-2H-K4NMeS+500 nM 2H-K4NMeS-Aminohexanoate; 1000, 10 and 0.1 nM N3-2H-K4NMeS-Aak; 250, 100, and 50 nM 2H-K4NMeS-Bleomycin A5). After 48 h the cells were lysed and the total RNA was harvested using a Zymo Quick RNA miniprep kit. An on-column DNA digestion was completed per the manufacturer's recommended protocol. Approximately 150 ng of total RNA was reverse transcribed at 50° C. using 100 units of SuperScript III reverse transcriptase (Life Technologies). Then 20% of the RT reaction was subjected to PCR using GoTaq DNA polymerase (Promega). RT-PCR products were observed after 25 cycles of 95° C. for 30 s, 58° C. for 30 s, 72° C. for 1 min and a final extension at 72° C. for 1 min. The products were separated on an 2% agarose gel ran at 100 V for 1 h in 1×TAE buffer. The products were visualized by staining with ethidium bromide and scanned using a Bio-Rad Gel Doc XR+ imaging system. The RT-PCR primers for the MBNL1 were […]
# r(CUG)exp [2] = assay: Splicing defects in HSA LR DM1 mouse model; assay type: in vivo; conditions: intraperitoneal once per day for 7 days, vastus muscle
# Procedure: All experimental procedures, mouse handling, and husbandry were completed in accordance with the Association for Assessment and Accreditation of Laboratory Animal Care. A mouse model for DM1^[8], HSA^LR in line 20b, was used. HSA^LR mice express human skeletal actin RNA with 250 CUG repeats in the 3′ UTR. Age- and gender-matched HSA^LR mice were injected intraperitoneally with either 100 mg/kg 2H-K4NMe in water or 13.3 mg/kg 2H-K4NMeS for treatment and 0.9% NaCl for control once per day for 7 days. Mice were sacrificed one day after the last injection, and the vastus muscle was obtained. RNA was extracted from the vastus tissue, and cDNA was synthesized as previously described.
# [3] = Metabolic stability in rat microsomes; assay type: in vitro ADME
# [4] = tested on: r(CUG) repeats in 3' UTR of luciferase; assay: Translational defect luciferase reporter assay, 800 CTG repeats; assay type: cell-based; conditions: cells with long, toxic r(CUG) repeats
# Procedure: (§1) C2C12 cell lines expressing 800 or 0 CTG repeats in the 3′ UTR of luciferase were grown as monolayers in 96-well plates in growth medium (1×DMEM, 10% FBS, 1× glutagro, (Corning) andlX antibiotic/antimycotic (Corning))^[10]. Once the cells were 70% confluent, the click functionalized dimers were added in 100 μL of growth medium (1000 nM N3-2H-K4NMeS and 1000, 10 and 0.1 nM N3-2H-K4NMeS-Aak). Cells were treated with compound for 48 h and then the cell count was normalized using WST-1 reagent (Roche). Then cells were washed with 1×DPBS and lysed by treating with 50 μL of PPBT lysis buffer at room temperature for 10 minutes. Then 50 μL of luciferase substrate was added and luminescence was measured.
# [5] = tested on: luciferase reporter without CTG repeats; assay: Translational defect luciferase reporter assay, 0 CTG repeats; assay type: cell-based
# Procedure: as §1
# r(CUG)exp [6] = assay: Nuclear foci by FISH in DM1 patient derived fibroblasts; assay type: cell-based, human; conditions: 48 h
# Procedure: FISH was utilized to determine the effects of small molecule dimers on the formation and disruption of nuclear foci. DM1 patient derived fibroblasts containing 500 CTG repeats (GM03987) were grown to ˜80% confluence in a Mat-Tek 96-well glass bottom plate in growth medium. Cells were treated with the compound of interest for 48 h in growth medium followed by FISH as previously described^6 using 1 ng/μL DY547-2′OMe-(CAG)6. Immunostaining of MBNL1 was completed as previously described^7 using the MB1a antibody (diluted 1:4), which was generously supplied by Prof. Glenn E. Morris (Wolfson Centre for Inherited Neuromuscular Disease^[9]. This was fluorescently labeled using a 1:200 dilution of goat anti-mouse IgG DyLight 488 conjugate. Untreated controls were stained using a 1 μg/μL solution of DAPI in 1×DPBS. Cells were imaged in 1×DPBS using an Olympus FluoView 1000 confocal microscope at 100× magnification.
# r(CCUG)300 = assay: Disruption of nuclear foci by FISH in DM2 cell culture model; assay type: cell-based; conditions: C2C12 cells expressing r(CCUG)300, 72 h treatment; untreated 9±2
# Procedure: FISH was utilized to determine the effects of clickable compounds on the formation of nuclear foci. C2C12 were sub-cultured into Mat-Tek 96-well glass bottom plates in growth medium. After the cells reached 60-70% confluency, each well was transfected with 200 ng of total plasmid using 1 μL of Lipofectamine 2000 according to the manufacturer's standard protocol. Equal amounts of plasmids expressing the DM2 mini-gene^[1] and EGFP, used as a positive marker of transfection, were used. After 5 h, the transfection cocktail was removed and replaced with differentiation medium containing the compound of interest. The cells were treated with compound for 72 h followed by FISH as previously described using 1 ng/μL DY547-2′OMe-(CAGG)5^[6]. Cells were imaged in 1×DPBS using an Olympus FluoView 1000 confocal microscope at 100× magnification.
smiles,measurement,setting,value
C[C@H](NC(=O)[C@H](C)N(C)C(=O)CN(CCN(C)C(=O)CCCOc1cccc(-c2nc3ccc(-c4nc5cc(N6CCN(C)CC6)ccc5[nH]4)cc3[nH]2)c1)C(=O)CN(CCNC(=O)CCCC[C@@H]1SC[C@@H]2NC(=O)N[C@@H]21)C(=O)CCNC(=O)CCCc1ccc(N(CCCl)CCCl)cc1)C(=O)N(C)[C@@H](C)C(=O)N(CCCCN(C)C(=O)CCCOc1cccc(-c2nc3ccc(-c4nc5cc(N6CCN(C)CC6)ccc5[nH]4)cc3[nH]2)c1)CC(N)=O [2H-K4NMeS-CA-Biotin],RNA targets pulled down (Chem-CLIP),DMPK mRNA,binds to disease-causing expanded transcripts and not other RNAs with shorter (non-pathogenic length) r(CUG) repeats
same,in vitro reaction with RNA targets,r(CUG)109,most effectively reacted with r(CUG)109
same,improvement of DM1-associated pre-mRNA splicing defects (in words),r(CUG)exp [1]; cells,improves DM1-associated pre-mRNA splicing defects in cells
C[C@@H](C(=O)N(C)[C@@H](C)C(=O)N(C)[C@@H](C)C(=O)N(C)[C@@H](C)C(=O)N(CCCCN(C)C(=O)CCCOc1cccc(-c2nc3ccc(-c4nc5cc(N6CCN(C)CC6)ccc5[nH]4)cc3[nH]2)c1)CC(N)=O)N(C)C(=O)CCCOc1cccc(-c2nc3ccc(-c4nc5cc(N6CCN(C)CC6)ccc5[nH]4)cc3[nH]2)c1 [2H-K4NMeS],rescue of pre-mRNA splicing defect,"r(CUG)exp [1]; DM1 patient-derived fibroblasts, concentrations greater than 100 nM",> 50%
same,potency at improving Clen1 pre-mRNA splicing defect compared to 2H-K4NMe,r(CUG)exp [2],> 7 fold
same,stability in microsomes (in words),[3],stable in microsomes; also recorded: stable to rat microsomes
C#CC(=O)NCCCCCC(=O)N(CCN(C)C(=O)CCCOc1cccc(-c2nc3ccc(-c4nc5cc(N6CCN(C)CC6)ccc5[nH]4)cc3[nH]2)c1)CC(=O)N(C)[C@@H](C)C(=O)N(C)[C@@H](C)C(=O)N(C)[C@@H](C)C(=O)N(CCCCN(C)C(=O)CCCOc1cccc(-c2nc3ccc(-c4nc5cc(N6CCN(C)CC6)ccc5[nH]4)cc3[nH]2)c1)CC(=O)N(CCCN=[N+]=[N-])CC(N)=O [N3-2H-K4NMeS-Aak],DMPK translational defect,[4],improved the DMPK translational defect at nanomolar concentrations
same,improvement of DM1-associated pre-mRNA splicing defects,"r(CUG)exp [1]; DM1 patient-derived fibroblasts, 10 nM dosage",> 50%
same,effect on translation in cells without pathogenic repeats,[5],has no effect on cells that did not have pathogenic repeats
same,RNA nuclear foci,r(CUG)exp [6],far fewer foci are observed
[N-]=[N+]=NCC1OC(OC2C(N)CC(N)C(OC3OC(CN)C(O)C(O)C3O)C2O)C(O)C(N)C1O (centres unmarked) [N3-K],average number of foci per cell,r(CCUG)300,6±2 foci per cell

# Source: patent US10471057B2, “Toxic RNA inhibitors self-assembled in situ” (THE SCRIPPS RESEARCH INSTITUTE, priority 2014, dated 2019)
